Source: article PMC6615598, “Novel antibiotics effective against gram-positive and -negative multi-resistant bacteria with limited resistance” (PLoS Biology, 2019)
Starred links: 1 amine or outer side, 2 acyl side, 3 side chain; linkers in the order of their positions; H or OH if unused. Non-standard residues stand in square brackets, D forms with d. Residues, ends and D or L forms follow the SMILES beside them. azaβ3(1Nal) = O=C(CN(Cc1cccc2ccccc12)N[*:1])[*:2]

Legend:
S. aureus Mu3 (MRSA) = assay: microbe, parasite or virus in culture; settings: Mu3
Protocol: (§1) (10−4 M final concentrations). At selected time intervals, 100 μl of reaction mixture was collected, quenched by 200 μl 95% EtOH, and adjusted at pH 2 to prevent peptide adsorption to serum proteins. […] Supernatants were analyzed by RP-HPLC on an Xbridge C18 column with a linear gradient of water, 0.08% TFA, and acetonitrile with 1% TFA. HPLC peak areas were used to calculate the percentages of intact compound remaining at the various time points. MIC and MBC values were determined in triplicate in many ESKAPE clinical isolates, including a dozen MDR S. aureus, by the broth microdilution method. Peptidomimetics and antibiotics were assayed in a concentration range of 1 to 128 μM. The bacterial inoculum (5 × 10^5 colony-forming units [CFUs]/well) was prepared in MHB or CAMHB (150 μl). A Biotek Synergy 2 spectrophotometer was used to record the results after 18–20 h incubation at 35°C (±2°C). […] After every hour of culture for 4 h, serial dilutions were plated on BHI plates and incubated overnight at 37°C, and then the CFUs were counted and expressed as log CFU/ml. Phosphate-buffered saline (PBS)-exposed S. aureus MRSA was included as a control.

S. aureus N315 (MRSA) = assay: microbe, parasite or virus in culture; settings: N315
Protocol: as §1

S. aureus Newman = assay: microbe, parasite or virus in culture; settings: Newman
Protocol: as §1

S. aureus 66534 E = assay: microbe, parasite or virus in culture
Protocol: as §1
(§2) Supplementary file pbio.3000337.s007.docx: S1 Table Antibacterial activity of the 4 peptidomimetics focusing on 9 S. aureus MDR clinical isolates. Clinical isolates BCB/POE and 740404 DUN are from human sepsis. The other strains are from catheter infections or suppurating wounds. Brilacidin was used as a control. MDR, multidrug resistant. (DOCX) Click here for additional data file.

S. aureus BCB/POE = assay: microbe, parasite or virus in culture
Protocol: as §1, §2

S. aureus 740404 DUN = assay: microbe, parasite or virus in culture
Protocol: as §1, §2

S. aureus FORT = assay: microbe, parasite or virus in culture
Protocol: as §1, §2

S. aureus PM64 = assay: microbe, parasite or virus in culture
Protocol: as §1, §2

S. aureus 702697 HOU = assay: microbe, parasite or virus in culture
Protocol: as §1, §2

S. aureus ROUS = assay: microbe, parasite or virus in culture
Protocol: as §1, §2

S. aureus COB = assay: microbe, parasite or virus in culture
Protocol: as §1, §2

S. aureus MRSA = assay: Time-kill assay at 30-fold MIC; type: cell-based; settings: 4 h
Protocol: as §1

[1] = Stability in mouse serum (half-life); type: in vitro ADME; settings: 25% mouse serum, pre-incubated 15 min at 37°C, peptide 10^−4 M, RP-HPLC peak areas, mean of biological triplicates
Protocol: as §1
Supplementary file pbio.3000337.s013.docx: S7 Table Peptide half-lives in human and mouse sera. […] Peptide amounts and half-lives were determined by HPLC. Experiments were conducted on 25% human or mouse sera. Values are shown in minutes. The mean values correspond to biological triplicates. HPLC, high pressure liquid chromatography. (DOCX) Click here for additional data file.

E. coli K12 = assay: microbe, parasite or virus in culture
Protocol: (§3) For 15 d in MHB, MICs were determined daily for each pseudopeptide and their antibiotic controls. This was done using cells from the well in which the compound concentration was one-half of the MIC (1/2MIC). For each compound, the 1/2MIC well from the previous day’s MIC assay plate was re-suspended and the bacteria grown to a density of about 10^8 cells ml−1. The suspension was diluted in MHB or CAMHB (10^6 cells/ml) and then used to determine the MIC of the same compound determined by micro broth dilution. All MIC measurements were performed in duplicate. Aliquots of the 5 × 10^4 cell/ml dilutions for each 1/2MIC well were periodically plated on MHB and incubated at 35°C for 18 h to verify cell density by colony counts and for visual inspection of colony phenotypes. To control compound stability, peptide solution MICs were determined during and at the end of the 15 d and were compared to cells unexposed to antibiotics. In vivo resistance was also assessed in treated mice (1.5 mg.kg^−1) for 4 d (sepsis) or 6 d (skin abscesses). […] The broth microdilution method was performed as per EUCAST recommendations on 5 independent colonies per mouse (3 mice per set, 15 colonies per drug tested). For severe sepsis and subcutaneous abscesses, in vivo resistance was determined by plating aliquots of crude kidney extracts or abscesses on plates containing 1-, 2-, 4-, or 8-fold the peptide MICs 7 or 3 d post infections, respectively.

MRSA (Mu3) = assay: microbe, parasite or virus in culture; settings: MRSA (Mu3)
Protocol: as §3

P. aeruginosa 15643 = assay: microbe, parasite or virus in culture
Protocol: as §3

E. coli MCR1 = assay: microbe, parasite or virus in culture
Protocol: as §3

E. coli 13090 = assay: microbe, parasite or virus in culture
Protocol: as §3

MSSA (Newman) = assay: microbe, parasite or virus in culture; settings: MSSA (Newman)
Protocol: as §3

[2] = E. coli K12, d0 of serial passages
[3] = E. coli K12, d14 of serial passages at sub-MIC
[4] = d14 of serial passages at sub-MIC
[5] = P. aeruginosa 15643, d0 of serial passages
[6] = P. aeruginosa 15643, d14 of serial passages at sub-MIC
[7] = E. coli MCR1, d0 of serial passages
[8] = E. coli MCR1, d14 of serial passages at sub-MIC
[9] = E. coli 13090, d0 of serial passages
[10] = E. coli 13090, d14 of serial passages at sub-MIC

| Structure (SMILES) | MIC (S. aureus Mu3 (MRSA)) | MIC (S. aureus N315 (MRSA)) | MIC (S. aureus Newman) | Bactericidal activity in time-kill curves (S. aureus MRSA) | half-life [1] | MIC (E. coli K12; [2]) | MIC (E. coli K12; [3]) | MIC (MRSA (Mu3); [4]) | MIC (P. aeruginosa 15643; [5]) | MIC (P. aeruginosa 15643; [6]) | MIC (E. coli MCR1; [7]) | MIC (E. coli MCR1; [8]) | MIC (E. coli 13090; [9]) | MIC (E. coli 13090; [10]) | MIC (MSSA (Newman); d0 of serial passages) | MIC (MSSA (Newman); [4]) | other results |
| --- | --- | --- | --- | --- | --- | --- | --- | --- | --- | --- | --- | --- | --- | --- | --- | --- | --- |
| CC(C)[C@@H]1NC(=O)[C@H](CCCNC(=N)N)NC(=O)[C@H](CCCNC(=N)N)NC(=O)[C@H](Cc2c[nH]c3ccccc23)NC(=O)[C@H](Cc2ccccc2)NC(=O)[C@H](Cc2ccccc2)NC(=O)[C@H](CCCCN)NC1=O [Pep18] (cyclo(FFWRRVK)) | 8 (8.2) μM | 8 (8.2) μM | 16 (16.4) μM | higher bactericidal activities than vancomycin | 8.5 ± 2.5 h | 16 (16.4) μM | 64 (65.6) μM | 16 (16.4) μM | 16 (16.4) μM | 16 (16.4) μM | 16 (16.4) μM | 64 (65.6) μM | 16 (16.4) μM | 64 (65.6) μM | 16 (16.4) μM | 64 (65.6) μM | MIC (S. aureus 66534 E; MDR S. aureus clinical isolate 66534 E): 32 mg/L^-1; MIC (S. aureus BCB/POE; MDR S. aureus clinical isolate BCB/POE, human sepsis): 32 mg/L^-1; MIC (S. aureus 740404 DUN; MDR S. aureus clinical isolate 740404 DUN, human sepsis): 32 mg/L^-1; MIC (S. aureus FORT; MDR S. aureus clinical isolate FORT): >32 mg/L^-1; MIC (S. aureus PM64; MDR S. aureus clinical isolate PM64): 32 mg/L^-1; MIC (S. aureus 702697 HOU; MDR S. aureus clinical isolate 702697 HOU): 16 mg/L^-1; MIC (S. aureus ROUS; MDR S. aureus clinical isolate ROUS): 8 mg/L^-1; MIC (S. aureus COB; MDR S. aureus clinical isolate COB): 32 mg/L^-1 |
| CC(C)[C@@H]1NC(=O)[C@H](CCCNC(=N)N)NC(=O)[C@H](CCCNC(=N)N)NC(=O)CN(Cc2cccc3ccccc23)NC(=O)[C@H](Cc2ccccc2)NC(=O)CN(Cc2cccc3ccccc23)NC(=O)[C@H](CCCCN)NC1=O [Pep19] (cyclo([azaβ3(1Nal)]F[azaβ3(1Nal)]RRVK)) | 4 (4.5) μM | 4 (4.5) μM | 4 (4.5) μM | higher bactericidal activities than vancomycin | 9 ± 1.75 h | 4 (4.4) μM | 8 (8.8) μM | 8 (8.8) μM | 8 (8.8) μM | 16 (16.2) μM | 8 (8.8) μM | 8 (8.8) μM | 8 (8.8) μM | 8 (8.8) μM | 4 (4.4) μM | 4 (4.4) μM | MIC (S. aureus 66534 E; 66534 E): 2 mg/L^-1; MIC (S. aureus BCB/POE; BCB/POE): 8 mg/L^-1; MIC (S. aureus 740404 DUN; 740404 DUN): 8 mg/L^-1; MIC (S. aureus FORT; FORT): 8 mg/L^-1; MIC (S. aureus PM64; PM64): 8 mg/L^-1; MIC (S. aureus 702697 HOU; 702697 HOU): 4 mg/L^-1; MIC (S. aureus ROUS; ROUS): 2 mg/L^-1; MIC (S. aureus COB; COB): 2 mg/L^-1; MIC (MRSA (Mu3); d0 of serial passages): 4 (4.4) μM |
